Assay results: PubChem BioAssay AID330 (DTP/NCI, 2004)
Values joined by “and” are separate entries in the source; they are usually repeats but may differ in a detail not shown here. Equal entries are not always repeated. Inconclusive results and toxic doses are left out. Rule for the calls: active = survival T/C of 150% or more; inactive = T/C below 125% in these data.

System: P388 leukemia ip, CD2F1 mice, survival T/C
Experiment: NCI In Vivo Anticancer Drug Screen. Data for tumor model P388 Leukemia (intraperitoneal) in CD2F1 (CDF1) mice
Settings: endpoint: median survival time, higher = longer survival
Summary of the method: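 Mice carrying the transplanted tumor received test compound or vehicle. Survival was recorded in each group, and the value is the treated-group measurement divided by that of the vehicle-treated control group.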

[1] = dose: 50.0 mg/kg/injection, schedule: Q01DX009 (ip), vehicle: Klucel (hydroxypropylcellulose) (HPC)
[2] = dose: 100.0 mg/kg/injection, schedule: Q01DX009 (ip), vehicle: Klucel (hydroxypropylcellulose) (HPC)
[3] = dose: 200.0 mg/kg/injection, schedule: Q01DX009 (ip), vehicle: Klucel (hydroxypropylcellulose) (HPC)
[4] = dose: 50.0 mg/kg/injection, schedule: Q04DX002 (ip), vehicle: saline with Tween-80
[5] = dose: 50.0 mg/kg/injection, schedule: Q01DX005 (ip), vehicle: saline with Tween-80
[6] = dose: 100.0 mg/kg/injection, schedule: Q01DX005 (ip), vehicle: saline with Tween-80
[7] = dose: 200.0 mg/kg/injection, schedule: Q01DX005 (ip), vehicle: saline with Tween-80
[8] = dose: 25.0 mg/kg/injection, schedule: Q04DX003 (ip), vehicle: saline with Tween-80

Measured: T/C

Cc1cc(O)c(C(=O)O)c2c1CCC(C1(C)CO1)C2 (stereo not drawn)
inactive: dose: 1.56 mg/kg/injection, schedule: Q01DX005 (ip), vehicle: Klucel (hydroxypropylcellulose) (HPC) 100 % of control | dose: 3.12 mg/kg/injection, schedule: Q01DX005 (ip), vehicle: Klucel (hydroxypropylcellulose) (HPC) 101 % of control | dose: 6.25 mg/kg/injection, schedule: Q01DX005 (ip), vehicle: Klucel (hydroxypropylcellulose) (HPC) 100 % of control | dose: 12.5 mg/kg/injection, schedule: Q01DX005 (ip), vehicle: Klucel (hydroxypropylcellulose) (HPC) 105 % of control | dose: 25.0 mg/kg/injection, schedule: Q01DX005 (ip), vehicle: Klucel (hydroxypropylcellulose) (HPC) 107 % of control

[Se]=P(c1ccccc1)(c1ccccc1)N1CC1
inactive: dose: 12.5 mg/kg/injection, schedule: Q01DX001 (ip), vehicle: Klucel (hydroxypropylcellulose) (HPC) 99 % of control | dose: 25.0 mg/kg/injection, schedule: Q01DX001 (ip), vehicle: Klucel (hydroxypropylcellulose) (HPC) 104 % of control | dose: 50.0 mg/kg/injection, schedule: Q01DX001 (ip), vehicle: Klucel (hydroxypropylcellulose) (HPC) 101 % of control

CCS/C(N)=C(\C#N)C(SCC)(SCC)SCC
inactive: dose: 50.0 mg/kg/injection, schedule: Q04DX003 (ip), vehicle: saline 107 % of control | dose: 100.0 mg/kg/injection, schedule: Q04DX003 (ip), vehicle: saline 106 % of control

N#Cc1nc2ccccc2n1OCc1ccccc1
inactive: [1] 97 % of control | [2] 107 % of control | [3] 102 % of control

CNC1C(O)C(NC)C2OC3(O)C(=O)CC(C)OC3OC2C1O (stereo not drawn)
inactive: [4] 101 % of control | dose: 100.0 mg/kg/injection, schedule: Q01DX005 (ip), vehicle: saline 101 % of control | dose: 100.0 mg/kg/injection, schedule: Q04DX002 (ip), vehicle: saline with Tween-80 101 % of control | dose: 200.0 mg/kg/injection, schedule: Q01DX005 (ip), vehicle: saline 100 % of control | dose: 200.0 mg/kg/injection, schedule: Q04DX002 (ip), vehicle: saline with Tween-80 98 % of control

O=c1oc(-c2cccc(-c3nc4sc5c(c4c(=O)o3)CCCC5)c2)nc2sc3c(c12)CCCC3
inactive: dose: 100.0 mg/kg/injection, schedule: Q01DX001 (ip), vehicle: Klucel (hydroxypropylcellulose) (HPC) 93 % of control | dose: 200.0 mg/kg/injection, schedule: Q01DX001 (ip), vehicle: Klucel (hydroxypropylcellulose) (HPC) 91 % of control | dose: 400.0 mg/kg/injection, schedule: Q01DX001 (ip), vehicle: Klucel (hydroxypropylcellulose) (HPC) 89 % of control

Cc1ccc2c(O)c3c(cc2c1O)C(=O)c1ccccc1C3=O
inactive: [5] 100 % of control | [6] 107 % of control | [7] 109 % of control

CC1(C)N=C(N)N=C(N)N1c1ccc(CCc2ccccc2)c(Cl)c1
inactive: dose: 4.1 mg/kg/injection, schedule: Q01DX009 (ip), vehicle: saline with Tween-80 118 % of control | dose: 6.25 mg/kg/injection, schedule: Q04DX003 (ip), vehicle: saline sonified 113 % of control | dose: 9.3 mg/kg/injection, schedule: Q01DX009 (ip), vehicle: saline with Tween-80 118 % of control | dose: 12.5 mg/kg/injection, schedule: Q04DX003 (ip), vehicle: saline sonified 104 % of control | dose: 25.0 mg/kg/injection, schedule: Q04DX003 (ip), vehicle: saline sonified 100 % of control

CCOc1cc2cc(CCC(=O)O)c(C)cc2cn1
inactive: dose: 12.5 mg/kg/injection, schedule: Q01DX009 (ip), vehicle: distilled water + Tween-80 101 % of control | dose: 25.0 mg/kg/injection, schedule: Q01DX009 (ip), vehicle: distilled water + Tween-80 103 % of control | dose: 50.0 mg/kg/injection, schedule: Q01DX009 (ip), vehicle: distilled water + Tween-80 97 % of control | dose: 100.0 mg/kg/injection, schedule: Q01DX009 (ip), vehicle: distilled water + Tween-80 98 % of control | dose: 200.0 mg/kg/injection, schedule: Q01DX009 (ip), vehicle: distilled water + Tween-80 107 % of control

Cc1c2ccncc2c(CNC(=O)CCC(=O)NCc2c3cnccc3c(C)c3c2c2ccccc2n3C)c2c3ccccc3n(C)c12
inactive: dose: 6.25 mg/kg/injection, schedule: Q04DX002 (ip), vehicle: saline with Tween-80 108 % of control | dose: 12.5 mg/kg/injection, schedule: Q04DX002 (ip), vehicle: saline with Tween-80 103 % of control | dose: 25.0 mg/kg/injection, schedule: Q04DX002 (ip), vehicle: saline with Tween-80 102 % of control | [4] 102 % of control

OC1CCC2SC1CCC2O (stereo not drawn)
inactive: dose: 50.0 mg/kg/injection, schedule: Q01DX009 (ip), vehicle: water 95 % of control | dose: 100.0 mg/kg/injection, schedule: Q01DX009 (ip), vehicle: water 102 % of control | dose: 200.0 mg/kg/injection, schedule: Q01DX009 (ip), vehicle: water 108 % of control | dose: 400.0 mg/kg/injection, schedule: Q01DX009 (ip), vehicle: water 100 % of control

O=C(O)c1cc(C(=O)O)cc([N+](=O)[O-])c1
inactive: [8] 100 % of control | dose: 50.0 mg/kg/injection, schedule: Q04DX003 (ip), vehicle: saline with Tween-80 100 % of control | dose: 100.0 mg/kg/injection, schedule: Q04DX003 (ip), vehicle: saline with Tween-80 100 % of control

CCCCCCCCCCCCCCCCCC(N)=S
inactive: dose: 12.5 mg/kg/injection, schedule: Q01DX005 (ip), vehicle: Klucel + Tween-80 95 % of control | dose: 25.0 mg/kg/injection, schedule: Q01DX005 (ip), vehicle: Klucel + Tween-80 95 % of control | dose: 50.0 mg/kg/injection, schedule: Q01DX005 (ip), vehicle: Klucel + Tween-80 86 % of control and 94 % of control | dose: 200.0 mg/kg/injection, schedule: Q01DX005 (ip), vehicle: Klucel + Tween-80 87 % of control

CCN(CC)c1ccc2c(c1)Oc1cc(N(CC)CC)ccc1C21c2ccccc2C(=O)N1c1ccccc1
inactive: dose: 50.0 mg/kg/injection, schedule: Q01DX005 (ip), vehicle: Klucel (hydroxypropylcellulose) (HPC) 98 % of control | dose: 100.0 mg/kg/injection, schedule: Q01DX005 (ip), vehicle: Klucel (hydroxypropylcellulose) (HPC) 99 % of control | dose: 200.0 mg/kg/injection, schedule: Q01DX005 (ip), vehicle: Klucel (hydroxypropylcellulose) (HPC) 103 % of control

CCOC(=O)c1cnc2cc(F)ccc2c1Nc1ccc2c(c1)OCO2
inactive: dose: 60.0 mg/kg/injection, schedule: Q01DX005 (ip), vehicle: Klucel (hydroxypropylcellulose) (HPC) 99 % of control | dose: 120.0 mg/kg/injection, schedule: Q01DX005 (ip), vehicle: Klucel (hydroxypropylcellulose) (HPC) 97 % of control | dose: 240.0 mg/kg/injection, schedule: Q01DX005 (ip), vehicle: Klucel (hydroxypropylcellulose) (HPC) 105 % of control

COC(=O)C(Cc1ccccc1)NC(=O)C(Cc1cnc[nH]1)N(C(=O)OCc1ccccc1)C(=O)OCc1ccccc1 (stereo not drawn)
inactive: dose: 25.0 mg/kg/injection, schedule: Q01DX005 (ip), vehicle: saline with Tween-80 88 % of control | [5] 91 % of control | [6] 87 % of control | [7] 89 % of control

CC(C)(C)N(N)Cc1ccccc1
inactive: dose: 25.0 mg/kg/injection, schedule: Q01DX009 (ip), vehicle: saline 99 % of control | dose: 50.0 mg/kg/injection, schedule: Q01DX009 (ip), vehicle: saline 104 % of control | dose: 100.0 mg/kg/injection, schedule: Q01DX009 (ip), vehicle: saline 104 % of control

OC(C(=S)N1CCCC1)(c1ccccc1)c1ccccc1
inactive: [1] 103 % of control | [2] 103 % of control | [3] 100 % of control

CC1CCC2CC(=O)NC(=O)CC12 (stereo not drawn)
inactive: dose: 6.25 mg/kg/injection, schedule: Q04DX003 (ip), vehicle: saline with Tween-80 100 % of control | dose: 12.5 mg/kg/injection, schedule: Q04DX003 (ip), vehicle: saline with Tween-80 100 % of control | [8] 104 % of control
